Experiments:
LTB4R = LTB4R (Homo sapiens, UniProt Q15722); experiment: GPCR panel (control), Arrestin, CHO-K1; type: cell-based; conditions: reference agonist
HTR1B = HTR1B (Homo sapiens, UniProt P28222); experiment: GPCR panel (control), Arrestin, U2OS; type: cell-based; conditions: reference agonist
HTR2A = HTR2A (Homo sapiens, UniProt P28223); conditions: reference agonist, U2OS, Arrestin
HTR1E = HTR1E (Homo sapiens, UniProt P28566); experiment: GPCR panel (control), Arrestin, U2OS; type: cell-based; conditions: reference agonist
HTR5A = HTR5A (Homo sapiens, UniProt P47898); experiment: GPCR panel (control), Arrestin, U2OS; type: cell-based; conditions: reference agonist
HTR1F = HTR1F (Homo sapiens, UniProt P30939); experiment: GPCR panel (control), Arrestin, U2OS; type: cell-based; conditions: reference agonist
AGTR1 = AGTR1 (Homo sapiens, UniProt P30556); conditions: reference agonist, AGTR1, CHO-K1, Arrestin
MRGPRX2 [1] = conditions: MRGPRX2 recombinantly expressed in HEK293 cells; read-out: EC50, calcium mobilization assays; cited from earlier work
Description: Other CXCLs contain sequences that are similar to the proposed pentapeptidic motif, but are either deeply buried in the typical 3D structure of the chemokine, or located near acidic amino acids, that are not tolerated by the negatively charged binding pocket of MRGPRX2 (see sequence alignment in Supplementary Fig. 4 for further information). […] No ...

MRGPRX2 [2] = target: T1, MRGPRX2 (Homo sapiens, UniProt Q96LB1); experiment: GPCR panel (control), Arrestin, CHO-K1; type: cell-based; conditions: reference agonist
T1 sequence (Q96LB1 1-330): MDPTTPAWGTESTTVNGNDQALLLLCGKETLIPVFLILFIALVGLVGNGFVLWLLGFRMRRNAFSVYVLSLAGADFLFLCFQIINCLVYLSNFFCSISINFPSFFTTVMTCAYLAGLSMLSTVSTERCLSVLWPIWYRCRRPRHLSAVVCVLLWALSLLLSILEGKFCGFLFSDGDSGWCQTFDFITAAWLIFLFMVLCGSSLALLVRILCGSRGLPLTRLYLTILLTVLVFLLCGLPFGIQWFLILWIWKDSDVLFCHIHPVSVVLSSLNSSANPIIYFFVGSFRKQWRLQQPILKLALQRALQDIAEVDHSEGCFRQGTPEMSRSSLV

MC1R = MC1R (Homo sapiens, UniProt Q01726); conditions: reference agonist, CHO-K1, Arrestin
MC5R = MC5R (Homo sapiens, UniProt P33032); conditions: reference agonist, CHO-K1, Arrestin
MC3R = MC3R (Homo sapiens, UniProt P41968); conditions: reference agonist, CHO-K1, Arrestin
MLNR = target: T2, MLNR (Homo sapiens, UniProt O43193); experiment: GPCR panel (control), Arrestin, CHO-K1; type: cell-based; conditions: reference agonist
T2 construct: expressed in transfected cells; host or cells: CHO-K1

NMU1R = target: T3, NMU1R (Homo sapiens, UniProt Q9HB89); experiment: GPCR panel (control), Arrestin, U2OS; type: cell-based; conditions: reference agonist
T3 construct: expressed in transfected cells; host or cells: U2OS

[3] = target: MRGPRX2 in CHEM-1 cells (human) (UniProt Q96LB1)
[4] = target: MRGPRX2 in LN229 glioblastoma cells (human) (UniProt Q96LB1)
[5] = target: T4, mouse MRGPRB2 in 1321N1 astrocytoma cells (mouse) (UniProt Q3KNA1)
T4 sequence: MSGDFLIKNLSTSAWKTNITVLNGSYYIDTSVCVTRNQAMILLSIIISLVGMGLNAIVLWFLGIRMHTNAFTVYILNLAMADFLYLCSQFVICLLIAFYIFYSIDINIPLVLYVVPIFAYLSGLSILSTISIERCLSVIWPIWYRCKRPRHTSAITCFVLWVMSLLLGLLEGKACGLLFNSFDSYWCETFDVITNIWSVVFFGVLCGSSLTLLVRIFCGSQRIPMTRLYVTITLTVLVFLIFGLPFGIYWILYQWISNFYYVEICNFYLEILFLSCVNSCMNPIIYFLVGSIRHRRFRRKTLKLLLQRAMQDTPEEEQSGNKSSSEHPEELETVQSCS

[6] = target: T4, mouse MRGPRB2 in 1321N1 astrocytoma cells (mouse); remark: listed apart in the source
[7] = target: MRGPRX2 fused to ProLink (PK), in CHO β-arrestin cells (human) (UniProt Q96LB1)
MRGPRB2 = target: T5, MRGPRB2 (Mus musculus, UniProt Q3KNA1); experiment: calcium mobilization assay, 1321N1 astrocytoma cells stably expressing MRGPRB2; type: cell-based
T5 construct: expressed in transfected cells; host or cells: 1321N1 astrocytoma cells (lentiviral, pLVX MRGPRB2-IRES-mCherry)
T5 sequence (Q3KNA1 1-338): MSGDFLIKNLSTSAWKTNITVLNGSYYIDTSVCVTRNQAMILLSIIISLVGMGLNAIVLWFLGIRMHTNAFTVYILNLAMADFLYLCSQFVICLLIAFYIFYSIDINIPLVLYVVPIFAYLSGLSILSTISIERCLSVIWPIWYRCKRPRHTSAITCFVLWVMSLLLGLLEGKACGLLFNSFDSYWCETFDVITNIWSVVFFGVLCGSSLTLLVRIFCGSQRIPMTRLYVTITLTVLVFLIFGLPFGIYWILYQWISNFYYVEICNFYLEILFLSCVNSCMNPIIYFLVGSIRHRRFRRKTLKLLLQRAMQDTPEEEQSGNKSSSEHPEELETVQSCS
Experimental: 1321N1 Astrocytoma cells were purchased from Sigma Aldrich-Merck KGaA (Darmstadt, Germany, 86030402). The cells were transfected with MRGPRB2 using lentiviral transfection. 1.5 × 10^6 Lenti-X 293 T cells were seeded into each T25 cell culture flask in 5 mL of DMEM, supplemented with 10% FCS, 100 U/mL of penicillin and 100 µg/mL of streptomycin. After 20 h of incubation at 37°C and 5% CO2, when the cells were grown to 80–90% confluence, the medium was exchanged for 5 mL DMEM with 10% FCS without antibiotics and incubated for 4 h. Subsequently, transfection took place using Xfect polymer according to the manufacturer’s protocol (Clontech, Takara Bio Europe, France). The pLVX MRGPRB2-IRES-mCherry-Xfect mixture was added to the packaging cells and they were incubated overnight. […] To know how many astrocytoma cells expressed the target receptor, cells were analyzed under the fluorescence microscope at the m-cherry excitation wavelength of 587 nm using its emission wavelength of 610 nm. Subsequently, fluorescent single clones were isolated by fluorescence-activated cell sorting.
(§1) […]. […] For the determination of baseline fluorescence, HBSS buffer without additives was used. […]

MRGPRX2 [8] = target: T1, MRGPRX2; experiment: β-arrestin recruitment assay (enzyme complementation), β-arrestin-CHO cells recombinantly expressing MRGPRX2; type: cell-based; conditions: 90 min incubation, chemiluminescence, means ± SD of 3 to 5 independent experiments in duplicates, read-out: EC50 ± SD, β-arrestin assays
MRGPRX2 [9] = target: T1, MRGPRX2; experiment: calcium mobilization assay, CHEM-1 cells recombinantly expressing MRGPRX2; type: cell-based; parameters: host or cells: CHEM-1 adherent rat hematopoietic cells; conditions: for pEC50: Fig. 3d
Description: To confirm the initial results obtained in the β-arrestin recruitment assays, we established calcium mobilization assays in two different recombinant cell lines, CHEM-1 and LN229 cells, respectively. CHEM-1 cells are adherent rat hematopoietic cells with a high endogenous expression level of the promiscuous Gα15 protein enabling the measuring of calcium signaling of a large variety of GPCRs. […]. Subsequently, we employed recombinant human glioblastoma LN229 cells, a human cell line derived from glioblastoma multiforme tumors. […].
The cell lines CHEM1 and CHEM1-MRGPRX2 are adherent rat cell lines (HTSCHEM-1RTA, HTS058RTA, Merck-Millipore, Darmstadt, Germany); which were cultured under standard cell culture conditions.
A cell-based fluorometric assay was employed for the determination of intracellular calcium release using Fluo-8. Cells were seeded into microtiter plates and incubated under standard cell culture conditions. After 24 h the medium was removed, and the cells were washed with phosphate-buffered saline (PBS). The cells were incubated with loading buffer (40 ml PBS with 2 mM Ca^2+, 800 µl of brilliant black solution (2%), 732 µl of probenecid solution (0.5 M) in 1 N NaOH, 400 µL of pluronic (10%) in water, and 152 µl of Fluo-8 (5.7 ng/ml in water)) for 30 min. For fluorescence readout and compound testing a FLIPR tetra system was used according to the manufacture’s protocol (Molecular Devices, CA 94089- 1136, USA).

MRGPRX2 [10] = target: T1, MRGPRX2; experiment: calcium mobilization assay, LN229 cells recombinantly expressing MRGPRX2; type: cell-based; conditions: Fluo-4, means ± SD of 3 to 4 independent experiments in duplicates, read-out: EC50 ± SD, calcium mobilization assays
Experimental: LN229 glioblastoma cells ATCC®, CRL-2611TM, were a kind gift from Prof. Dr. B. Scheffler (University of Bonn, Germany). LN229 cells stably expressing MRGPRX2 were generated by retroviral transfection. Briefly, GP^+envAM-12 packaging cells (LGC Standards GmbH, Wesel, Germany), derived from mouse fibroblasts, were seeded at a density of 1.5 × 10^6 cells per T25-flask in 5 mL of Dulbecco’s Modified Eagle Medium (DMEM, Thermo Fisher Scientific, Waltham, MA, USA), supplemented with 10% fetal calf serum (FCS), 100 U/mL of penicillin (PAN-Biotech) and 100 µg/mL of streptomycin (PAN-Biotech). Packaging cells were transfected with pLXSN-MRGPRX2 and pcDNA3-VSV-G using Lipofectamine 2000 according to the manufacturer’s instructions (Thermo Fisher Scientific, Darmstadt, Germany). The medium was exchanged for DMEM supplemented with 10% FCS, 100 U/mL of penicillin, 100 µg/mL of streptomycin and 3 mM of sodium butyrate (stock solution: 500 mM in water, sterile-filtered) to enhance virus production. To produce retroviral particles, cells were cultivated for 48 h at 32°C and 5% CO2. On day 4, the target cells LN229 were seeded into T25 cell culture flasks (5 × 10^5 cell). […]
as §1

HTR1F, sequence (P30939 whole entry): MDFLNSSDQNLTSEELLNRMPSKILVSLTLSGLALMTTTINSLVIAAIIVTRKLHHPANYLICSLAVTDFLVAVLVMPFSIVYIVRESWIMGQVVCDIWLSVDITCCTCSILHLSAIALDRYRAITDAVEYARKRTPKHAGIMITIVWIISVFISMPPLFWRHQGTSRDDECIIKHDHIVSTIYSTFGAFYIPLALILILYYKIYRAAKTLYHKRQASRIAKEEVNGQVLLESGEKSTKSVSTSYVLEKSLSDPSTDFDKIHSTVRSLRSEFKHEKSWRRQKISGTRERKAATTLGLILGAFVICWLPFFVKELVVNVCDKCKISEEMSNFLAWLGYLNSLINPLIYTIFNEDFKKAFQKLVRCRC
T2 sequence (O43193 whole entry): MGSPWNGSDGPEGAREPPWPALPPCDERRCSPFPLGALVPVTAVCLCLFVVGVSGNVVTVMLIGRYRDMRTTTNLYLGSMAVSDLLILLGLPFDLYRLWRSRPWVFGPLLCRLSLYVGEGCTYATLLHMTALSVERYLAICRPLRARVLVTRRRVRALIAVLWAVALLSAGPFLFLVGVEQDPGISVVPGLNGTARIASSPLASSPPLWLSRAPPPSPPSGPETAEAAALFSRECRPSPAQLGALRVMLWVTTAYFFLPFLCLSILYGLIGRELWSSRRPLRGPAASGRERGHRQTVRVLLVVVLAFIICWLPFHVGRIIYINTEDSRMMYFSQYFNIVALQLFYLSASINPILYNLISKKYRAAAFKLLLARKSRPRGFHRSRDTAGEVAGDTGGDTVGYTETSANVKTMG
HTR1B, sequence (P28222 whole entry): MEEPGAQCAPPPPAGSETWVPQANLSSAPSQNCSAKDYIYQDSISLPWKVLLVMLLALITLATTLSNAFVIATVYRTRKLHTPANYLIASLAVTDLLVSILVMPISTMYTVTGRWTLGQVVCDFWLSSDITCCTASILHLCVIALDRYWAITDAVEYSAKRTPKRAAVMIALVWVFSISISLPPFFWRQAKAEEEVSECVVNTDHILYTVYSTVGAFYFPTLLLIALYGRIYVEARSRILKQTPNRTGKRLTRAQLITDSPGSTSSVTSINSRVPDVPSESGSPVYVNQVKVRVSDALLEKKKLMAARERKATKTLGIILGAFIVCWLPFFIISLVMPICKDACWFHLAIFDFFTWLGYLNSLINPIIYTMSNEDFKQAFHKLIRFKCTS
T3 sequence (Q9HB89 whole entry): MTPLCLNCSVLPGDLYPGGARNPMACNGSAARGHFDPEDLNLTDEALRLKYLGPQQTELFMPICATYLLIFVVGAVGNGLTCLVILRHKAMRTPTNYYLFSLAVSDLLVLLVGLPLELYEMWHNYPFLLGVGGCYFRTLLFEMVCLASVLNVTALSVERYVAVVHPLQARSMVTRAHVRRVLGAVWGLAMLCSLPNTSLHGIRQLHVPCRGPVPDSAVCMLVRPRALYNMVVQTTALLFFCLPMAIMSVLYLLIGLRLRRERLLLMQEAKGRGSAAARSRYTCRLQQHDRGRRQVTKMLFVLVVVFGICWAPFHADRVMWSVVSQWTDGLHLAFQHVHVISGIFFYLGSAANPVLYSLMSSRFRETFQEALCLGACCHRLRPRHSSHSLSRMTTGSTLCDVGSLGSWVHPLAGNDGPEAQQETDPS
MC1R, sequence (Q01726 whole entry): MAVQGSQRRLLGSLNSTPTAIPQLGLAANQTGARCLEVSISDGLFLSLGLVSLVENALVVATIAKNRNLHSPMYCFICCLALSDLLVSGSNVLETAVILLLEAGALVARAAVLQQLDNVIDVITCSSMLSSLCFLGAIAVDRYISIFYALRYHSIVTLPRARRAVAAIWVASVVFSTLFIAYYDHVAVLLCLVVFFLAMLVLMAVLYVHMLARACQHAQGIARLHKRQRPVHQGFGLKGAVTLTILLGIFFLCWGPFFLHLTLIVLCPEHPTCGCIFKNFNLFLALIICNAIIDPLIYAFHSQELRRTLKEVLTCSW
MC3R, sequence (P41968 whole entry): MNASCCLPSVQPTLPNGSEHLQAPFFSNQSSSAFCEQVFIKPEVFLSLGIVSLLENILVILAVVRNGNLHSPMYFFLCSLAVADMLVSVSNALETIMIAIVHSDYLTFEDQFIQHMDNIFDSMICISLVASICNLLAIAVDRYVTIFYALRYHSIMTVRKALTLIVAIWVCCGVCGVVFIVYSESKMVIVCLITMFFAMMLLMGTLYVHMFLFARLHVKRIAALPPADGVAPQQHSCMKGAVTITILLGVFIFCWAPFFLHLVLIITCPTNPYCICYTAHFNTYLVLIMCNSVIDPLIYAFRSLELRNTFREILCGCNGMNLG
LTB4R, sequence (Q15722 whole entry): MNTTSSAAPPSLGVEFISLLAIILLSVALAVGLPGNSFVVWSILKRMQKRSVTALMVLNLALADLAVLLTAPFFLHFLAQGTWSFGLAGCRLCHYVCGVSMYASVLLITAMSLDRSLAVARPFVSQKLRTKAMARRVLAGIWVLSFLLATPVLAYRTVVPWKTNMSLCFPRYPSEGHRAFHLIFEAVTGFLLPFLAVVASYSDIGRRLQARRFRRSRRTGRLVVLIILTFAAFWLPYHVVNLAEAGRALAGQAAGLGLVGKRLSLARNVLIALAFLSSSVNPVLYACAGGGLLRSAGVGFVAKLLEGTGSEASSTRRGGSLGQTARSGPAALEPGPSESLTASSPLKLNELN
MC5R, sequence (P33032 whole entry): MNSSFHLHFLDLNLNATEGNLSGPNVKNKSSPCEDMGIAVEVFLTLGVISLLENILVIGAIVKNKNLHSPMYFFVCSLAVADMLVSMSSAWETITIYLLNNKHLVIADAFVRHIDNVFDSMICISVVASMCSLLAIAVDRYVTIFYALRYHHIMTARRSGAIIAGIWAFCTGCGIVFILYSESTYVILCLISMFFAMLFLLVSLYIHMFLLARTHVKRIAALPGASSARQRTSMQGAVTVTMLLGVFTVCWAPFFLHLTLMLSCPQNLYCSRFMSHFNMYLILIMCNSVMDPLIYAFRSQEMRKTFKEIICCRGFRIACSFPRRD
HTR2A, sequence (P28223 whole entry): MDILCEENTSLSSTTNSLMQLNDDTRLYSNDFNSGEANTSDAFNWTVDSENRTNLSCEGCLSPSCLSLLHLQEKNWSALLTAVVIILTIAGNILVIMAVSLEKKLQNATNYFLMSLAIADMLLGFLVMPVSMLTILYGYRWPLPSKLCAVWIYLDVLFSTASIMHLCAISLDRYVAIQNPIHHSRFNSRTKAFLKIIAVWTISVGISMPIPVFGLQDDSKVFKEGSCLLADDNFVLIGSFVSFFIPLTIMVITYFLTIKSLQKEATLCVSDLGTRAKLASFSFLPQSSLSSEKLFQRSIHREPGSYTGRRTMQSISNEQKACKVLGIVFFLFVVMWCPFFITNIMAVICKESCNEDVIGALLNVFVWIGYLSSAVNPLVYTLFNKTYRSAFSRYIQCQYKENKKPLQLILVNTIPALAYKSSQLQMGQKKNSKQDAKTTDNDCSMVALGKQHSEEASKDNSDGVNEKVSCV
AGTR1, sequence (P30556 whole entry): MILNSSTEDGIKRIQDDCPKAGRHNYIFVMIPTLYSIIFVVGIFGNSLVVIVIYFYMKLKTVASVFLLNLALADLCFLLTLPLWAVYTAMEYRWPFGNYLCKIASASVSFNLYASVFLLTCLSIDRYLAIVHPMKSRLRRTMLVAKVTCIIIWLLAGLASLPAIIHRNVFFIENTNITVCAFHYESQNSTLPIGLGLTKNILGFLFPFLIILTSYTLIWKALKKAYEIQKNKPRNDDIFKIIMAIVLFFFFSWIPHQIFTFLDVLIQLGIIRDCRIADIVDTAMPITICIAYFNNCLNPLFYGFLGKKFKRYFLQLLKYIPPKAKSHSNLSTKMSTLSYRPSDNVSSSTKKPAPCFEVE
HTR1E, sequence (P28566 whole entry): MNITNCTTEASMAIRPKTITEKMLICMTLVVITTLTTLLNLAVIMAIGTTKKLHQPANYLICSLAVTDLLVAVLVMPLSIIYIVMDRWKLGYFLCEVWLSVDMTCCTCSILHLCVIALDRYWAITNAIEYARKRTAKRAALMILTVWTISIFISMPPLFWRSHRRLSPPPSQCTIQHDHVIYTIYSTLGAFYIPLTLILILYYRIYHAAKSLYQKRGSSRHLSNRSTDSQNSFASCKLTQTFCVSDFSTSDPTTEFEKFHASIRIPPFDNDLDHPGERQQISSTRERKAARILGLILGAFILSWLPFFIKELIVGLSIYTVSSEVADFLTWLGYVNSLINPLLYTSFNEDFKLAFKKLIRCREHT
HTR5A, sequence (P47898 whole entry): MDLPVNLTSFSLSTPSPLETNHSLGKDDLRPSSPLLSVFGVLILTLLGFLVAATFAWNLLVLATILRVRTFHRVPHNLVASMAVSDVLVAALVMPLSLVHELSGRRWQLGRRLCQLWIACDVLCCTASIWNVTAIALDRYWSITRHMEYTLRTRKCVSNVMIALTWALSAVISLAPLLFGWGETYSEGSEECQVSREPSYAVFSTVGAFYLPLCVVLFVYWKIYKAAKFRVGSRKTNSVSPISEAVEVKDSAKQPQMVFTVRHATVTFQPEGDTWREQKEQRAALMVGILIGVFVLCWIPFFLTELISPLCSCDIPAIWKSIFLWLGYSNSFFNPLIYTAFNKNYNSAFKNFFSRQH

For CCCCC/C=C\C[C@@H](O)/C=C/C=C/C=C\[C@@H](O)CCCC(=O)O [Leukotriene B4], the “EC80” value (LTB4R) was 5000 nM.

For NCCc1c[nH]c2ccc(O)cc12 [Serotonin], the “EC80” value (HTR1B) was 7700 nM, the “EC80” value (HTR2A) was 7100 nM and the “EC80” value (HTR1E) was 1300 nM. The “EC80” value (HTR5A) was 630 nM and the “EC80” value (HTR1F) was 6600 nM.

In the case of Angiotensin II, the “EC80” value (AGTR1) is reported as 150 nM.

In the case of “CXCL4: chemokine, also known as platelet factor 4”, the EC50 (MRGPRX2 [1]) is given as 9000 nM.

For Cortistatin-14, the “EC80” value (MRGPRX2 [2]) was 8100 nM.

In the case of Melanotan II, the “EC80” value (MC1R) is reported as 30 nM, the “EC80” value (MC5R) is reported as 340 nM and the “EC80” value (MC3R) is reported as 37 nM.

In the case of Motilin, the “EC80” value (MLNR) is reported as 110 nM.

For Neuromedin U-25, the “EC80” value (NMU1R) was 92 nM.

B1: CXC motif chemokine 14 (CXCL14) (ligand)
chain: SKCKCSRKGPKIRYSDVKKLEMKPKYPHCEEKMVIITTKSVSRYRGQEHCLHPKLQSTKRFIKWYNAWNEKRRVYEE
Molecule B1 has an EC50, calcium mobilization, CHEM-1 cells recombinantly expressing MRGPRX2 (no response in the parental CHEM1 cell line) [3] of 889 nM, an EC50, calcium mobilization, LN229 cells recombinantly expressing MRGPRX2 (no activation in non-transfected LN229 cells) [4] of 504 nM and an EC50, calcium mobilization, 1321N1 astrocytoma cells stably expressing MRGPRB2 (no response in non-transfected cells) [5] of 972 nM. It also gave an EC50, activation of MRGPRB2 as repeated in the discussion [6] of 923 nM and an EC50, β-arrestin recruitment, β-arrestin-CHO cells recombinantly expressing MRGPRX2 [7] of 905 nM.

B2: CXCL14: mature 77-amino acid chemokine, 9.4 kDa, also known as BRAK; purchased from BIOZOL (protein)
chain: SKCKCSRKGPKIRYSDVKKLEMKPKYPHCEEKMVIITTKSVSRYRGQEHCLHPKLQSTKRFIKWYNAWNEKRRVYEE
modifications: two disulfide bonds (native chemokine fold); entity numbering = mature + 1
For B2, the “pEC50 MRGPRB2” value (MRGPRB2; Fig. 6c source data, mean, SD and N in columns beside it (N = 2-3)) was 6.032, the “Mean of MRGPRB2 (pEC50)” value (MRGPRB2; Fig. 6c, mean as listed in the unpaired t test with Welch correction, MRGPRX2 vs. MRGPRB2) was 6.03 and the EC50 (MRGPRX2 [8]) was 905 ± 548 nM. The EC50 (MRGPRX2 [9]; CHEM-1 cells recombinantly expressing MRGPRX2, Fluo-8, FLIPR, read-out: EC50, calcium mobilization assays) was 889 nM, the pEC50 (MRGPRX2 [9]; replicate column 1) was 5.955 and the pEC50 (MRGPRX2 [9]; replicate column 2) was 6.033. For the same molecule, the pEC50 (MRGPRX2 [9]; replicate column 3) was 6.061, the pEC50 (MRGPRX2 [9]; replicate column 4) was 6.051 and the EC50 (MRGPRX2 [10]) was 504 nM.

From article PMC10771525 (Communications Biology, 2024)
